Data published in patent US20020065219A1, “Water soluble thiazolyl peptide derivatives” (priority 2000, published 2002).
≈ marks a conversion by molar mass, not a printed value. Where two headings read alike, the source gives them in different places.

Key:
Assay in all cases: MIC, broth micro dilution assay (NCCLS)
Type in all cases: cell-based
[1] = test system: Staphylococcus aureus A15090
[2] = test system: Streptococcus pneumoniae A28272
[3] = test system: Enterococcus faecalis A20688
[4] = Mueller-Hinton medium, 35° C., 18 hours
[5] = 50% Mueller-Hinton medium and 50% Todd Hewitt medium, 35° C., 18 hours

Compound	MIC (μg/mL) against Staphylococcus aureus A15090 [1, 4]	MIC (μg/mL) against Streptococcus pneumoniae A28272 [2, 5]	MIC (μg/mL) against Enterococcus faecalis A20688 [3, 4]	MIC (μg/mL) against Staphylococcus aureus A15090 [1]	MIC (μg/mL) against Streptococcus pneumoniae A28272 [2]	MIC (μg/mL) against Enterococcus faecalis A20688 [3]
CO/C(C)=C1/NC(=O)C(C(C)O)NC(=O)c2csc(n2)-c2cc(O)c(-c3nc(C(=O)NC(CSCCc4nnn[nH]4)C(N)=O)cs3)nc2-c2csc(n2)C2COC(=O)c3c4c5c(cccc5n3O)COC(=O)C(O[C@H]3C[C@](C)(O)[C@H](N(C)C)[C@H](C)O3)C(OC4)C(NC(=O)c3csc1n3)c1nc(cs1)C(=O)N2 (stereo partly drawn) [Example 47]	2.0 µg/mL (≈ 1.28 µM)	0.25 µg/mL (≈ 0.159 µM)	32 µg/mL (≈ 20.4 µM)			
CO/C(C)=C1/NC(=O)C(C(C)O)NC(=O)c2csc(n2)-c2cc(O)c(-c3nc(C(=O)NC(CN4CCN(c5ccccn5)CC4)C(N)=O)cs3)nc2-c2csc(n2)C2COC(=O)c3c4c5c(cccc5n3O)COC(=O)C(O[C@H]3C[C@](C)(O)[C@H](N(C)C)[C@H](C)O3)C(OC4)C(NC(=O)c3csc1n3)c1nc(cs1)C(=O)N2 (stereo partly drawn) [Example 48]				0.125 µg/mL (≈ 0.0781 µM)	0.03 µg/mL (≈ 0.0187 µM)	0.25 µg/mL (≈ 0.156 µM)
CO/C(C)=C1/NC(=O)C(C(C)O)NC(=O)c2csc(n2)-c2cc(O)c(-c3nc(C(=O)NC(CN4CCN(CCOCCO)CC4)C(N)=O)cs3)nc2-c2csc(n2)C2COC(=O)c3c4c5c(cccc5n3O)COC(=O)C(O[C@H]3C[C@](C)(O)[C@H](N(C)C)[C@H](C)O3)C(OC4)C(NC(=O)c3csc1n3)c1nc(cs1)C(=O)N2 (stereo partly drawn) [Example 49]	0.5 µg/mL (≈ 0.31 µM)	0.5 µg/mL (≈ 0.31 µM)	2.0 µg/mL (≈ 1.24 µM)			
CO/C(C)=C1/NC(=O)C(C(C)O)NC(=O)c2csc(n2)-c2cc(O)c(-c3nc(C(=O)NC(CNCc4nn[nH]n4)C(N)=O)cs3)nc2-c2csc(n2)C2COC(=O)c3c4c5c(cccc5n3O)COC(=O)C(O[C@H]3C[C@](C)(O)[C@H](N(C)C)[C@H](C)O3)C(OC4)C(NC(=O)c3csc1n3)c1nc(cs1)C(=O)N2 (stereo partly drawn) [Example 50]				0.25 µg/mL (≈ 0.163 µM)	0.25 µg/mL (≈ 0.163 µM)	1.0 µg/mL (≈ 0.651 µM)
CO/C(C)=C1/NC(=O)C(C(C)O)NC(=O)c2csc(n2)-c2cc(O)c(-c3nc(C(=O)NC(CNCCCN4CCN(C)CC4)C(N)=O)cs3)nc2-c2csc(n2)C2COC(=O)c3c4c5c(cccc5n3O)COC(=O)C(O[C@H]3C[C@](C)(O)[C@H](N(C)C)[C@H](C)O3)C(OC4)C(NC(=O)c3csc1n3)c1nc(cs1)C(=O)N2 (stereo partly drawn) [Example 51]				0.25 µg/mL (≈ 0.157 µM)	0.015 µg/mL (≈ 0.00941 µM)	4.0 µg/mL (≈ 2.51 µM)
CO/C(C)=C1/NC(=O)C(C(C)O)NC(=O)c2csc(n2)-c2cc(O)c(-c3nc(C(=O)NC(CN4CCN(c5ccncc5)CC4)C(N)=O)cs3)nc2-c2csc(n2)C2COC(=O)c3c4c5c(cccc5n3O)COC(=O)C(O[C@H]3C[C@](C)(O)[C@H](N(C)C)[C@H](C)O3)C(OC4)C(NC(=O)c3csc1n3)c1nc(cs1)C(=O)N2 (stereo partly drawn) [Example 52]				0.5 µg/mL (≈ 0.312 µM)	0.5 µg/mL (≈ 0.312 µM)	1.0 µg/mL (≈ 0.625 µM)
CO/C(C)=C1/NC(=O)C(C(C)O)NC(=O)c2csc(n2)-c2cc(O)c(-c3nc(C(=O)NC(CN4CCN(CCN5CCOCC5)CC4)C(N)=O)cs3)nc2-c2csc(n2)C2COC(=O)c3c4c5c(cccc5n3O)COC(=O)C(O[C@H]3C[C@](C)(O)[C@H](N(C)C)[C@H](C)O3)C(OC4)C(NC(=O)c3csc1n3)c1nc(cs1)C(=O)N2 (stereo partly drawn) [Example 53]				0.5 µg/mL (≈ 0.305 µM)	0.5 µg/mL (≈ 0.305 µM)	1.0 µg/mL (≈ 0.611 µM)
CO/C(C)=C1/NC(=O)C(C(C)O)NC(=O)c2csc(n2)-c2cc(O)c(-c3nc(C(=O)NC(CN4CCN(CCN(C)C)CC4)C(N)=O)cs3)nc2-c2csc(n2)C2COC(=O)c3c4c5c(cccc5n3O)COC(=O)C(O[C@H]3C[C@](C)(O)[C@H](N(C)C)[C@H](C)O3)C(OC4)C(NC(=O)c3csc1n3)c1nc(cs1)C(=O)N2 (stereo partly drawn) [Example 54]				0.5 µg/mL (≈ 0.314 µM)	0.25 µg/mL (≈ 0.157 µM)	0.125 µg/mL (≈ 0.0784 µM)
CO/C(C)=C1/NC(=O)C(C(C)O)NC(=O)c2csc(n2)-c2cc(O)c(-c3nc(C(=O)NC(CNCCOCCOCCO)C(N)=O)cs3)nc2-c2csc(n2)C2COC(=O)c3c4c5c(cccc5n3O)COC(=O)C(O[C@H]3C[C@](C)(O)[C@H](N(C)C)[C@H](C)O3)C(OC4)C(NC(=O)c3csc1n3)c1nc(cs1)C(=O)N2 (stereo partly drawn) [Example 55]				0.25 µg/mL (≈ 0.158 µM)	0.06 µg/mL (≈ 0.0378 µM)	0.5 µg/mL (≈ 0.315 µM)
CO/C(C)=C1/NC(=O)C(C(C)O)NC(=O)c2csc(n2)-c2cc(O)c(-c3nc(C(=O)NC(CN(C)CCc4c[nH]cn4)C(N)=O)cs3)nc2-c2csc(n2)C2COC(=O)c3c4c5c(cccc5n3O)COC(=O)C(O[C@H]3C[C@](C)(O)[C@H](N(C)C)[C@H](C)O3)C(OC4)C(NC(=O)c3csc1n3)c1nc(cs1)C(=O)N2 (stereo partly drawn) [Example 56]				0.25 µg/mL (≈ 0.16 µM)	0.125 µg/mL (≈ 0.08 µM)	0.5 µg/mL (≈ 0.32 µM)
CO/C(C)=C1/NC(=O)C(C(C)O)NC(=O)c2csc(n2)-c2cc(O)c(-c3nc(C(=O)NC(CNCCOCCOCCOCCN)C(N)=O)cs3)nc2-c2csc(n2)C2COC(=O)c3c4c5c(cccc5n3O)COC(=O)C(O[C@H]3C[C@](C)(O)[C@H](N(C)C)[C@H](C)O3)C(OC4)C(NC(=O)c3csc1n3)c1nc(cs1)C(=O)N2 (stereo partly drawn) [Example 58]				1.0 µg/mL (≈ 0.614 µM)	0.25 µg/mL (≈ 0.153 µM)	1.0 µg/mL (≈ 0.614 µM)
CO/C(C)=C1/NC(=O)C(C(C)O)NC(=O)c2csc(n2)-c2cc(O)c(-c3nc(C(=O)NC(CN4C[C@H](C)NC[C@@H]4C)C(N)=O)cs3)nc2-c2csc(n2)C2COC(=O)c3c4c5c(cccc5n3O)COC(=O)C(O[C@H]3C[C@](C)(O)[C@H](N(C)C)[C@H](C)O3)C(OC4)C(NC(=O)c3csc1n3)c1nc(cs1)C(=O)N2 (stereo partly drawn) [Example 59]	1.0 µg/mL (≈ 0.644 µM)	0.25 µg/mL (≈ 0.161 µM)	2.0 µg/mL (≈ 1.29 µM)			
CO/C(C)=C1/NC(=O)C(C(C)O)NC(=O)c2csc(n2)-c2cc(O)c(-c3nc(C(=O)NC(CSC4CN5CCC4CC5)C(N)=O)cs3)nc2-c2csc(n2)C2COC(=O)c3c4c5c(cccc5n3O)COC(=O)C(O[C@H]3C[C@](C)(O)[C@H](N(C)C)[C@H](C)O3)C(OC4)C(NC(=O)c3csc1n3)c1nc(cs1)C(=O)N2 (stereo partly drawn) [Example 60]				2.0 µg/mL (≈ 1.27 µM)	0.5 µg/mL (≈ 0.316 µM)	2.0 µg/mL (≈ 1.27 µM)
CO/C(C)=C1/NC(=O)C(C(C)O)NC(=O)c2csc(n2)-c2cc(O)c(-c3nc(C(=O)NC(CN[C@@H](C)c4ccccc4)C(N)=O)cs3)nc2-c2csc(n2)C2COC(=O)c3c4c5c(cccc5n3O)COC(=O)C(O[C@H]3C[C@](C)(O)[C@H](N(C)C)[C@H](C)O3)C(OC4)C(NC(=O)c3csc1n3)c1nc(cs1)C(=O)N2 (stereo partly drawn) [Example 61]	0.25 µg/mL (≈ 0.16 µM)	0.03 µg/mL (≈ 0.0192 µM)	0.25 µg/mL (≈ 0.16 µM)			
CO/C(C)=C1/NC(=O)C(C(C)O)NC(=O)c2csc(n2)-c2cc(O)c(-c3nc(C(=O)NC(CSCCc4cnccn4)C(N)=O)cs3)nc2-c2csc(n2)C2COC(=O)c3c4c5c(cccc5n3O)COC(=O)C(O[C@H]3C[C@](C)(O)[C@H](N(C)C)[C@H](C)O3)C(OC4)C(NC(=O)c3csc1n3)c1nc(cs1)C(=O)N2 (stereo partly drawn) [Example 62]	0.125 µg/mL (≈ 0.0792 µM)	0.015 µg/mL (≈ 0.00951 µM)	0.25 µg/mL (≈ 0.158 µM)			
COC[C@@H]1CCCN1CC(NC(=O)c1csc(-c2nc3c(cc2O)-c2nc(cs2)C(=O)NC(C(C)O)C(=O)N/C(=C(\C)OC)c2nc(cs2)C(=O)NC2c4nc(cs4)C(=O)NC(COC(=O)c4c5c6c(cccc6n4O)COC(=O)C(O[C@H]4C[C@](C)(O)[C@H](N(C)C)[C@H](C)O4)C2OC5)c2nc-3cs2)n1)C(N)=O (stereo partly drawn) [Example 63]	0.125 µg/mL (≈ 0.0805 µM)	0.03 µg/mL (≈ 0.0193 µM)	0.25 µg/mL (≈ 0.161 µM)			
CO/C(C)=C1/NC(=O)C(C(C)O)NC(=O)c2csc(n2)-c2cc(O)c(-c3nc(C(=O)NC(CN4CCC[C@H]4CN4CCCC4)C(N)=O)cs3)nc2-c2csc(n2)C2COC(=O)c3c4c5c(cccc5n3O)COC(=O)C(O[C@H]3C[C@](C)(O)[C@H](N(C)C)[C@H](C)O3)C(OC4)C(NC(=O)c3csc1n3)c1nc(cs1)C(=O)N2 (stereo partly drawn) [Example 65]				0.03 µg/mL (≈ 0.0188 µM)	2.0 µg/mL (≈ 1.26 µM)	1.0 µg/mL (≈ 0.628 µM)
COC(C)=C1NC(=O)C(C(C)O)NC(=O)c2csc(n2)-c2cc(O)c(-c3nc(C(=O)NC(CNC(CO)Cc4c[nH]cn4)C(N)=O)cs3)nc2-c2csc(n2)C2COC(=O)c3c4c5c(cccc5n3O)COC(=O)C(OC3CC(C)(O)C(N(C)C)C(C)O3)C(OC4)C(NC(=O)c3csc1n3)c1nc(cs1)C(=O)N2 (stereo not drawn) [Example 66]	2.0 µg/mL (≈ 1.27 µM)	2.0 µg/mL (≈ 1.27 µM)	16 µg/mL (≈ 10.1 µM)			
COC(C)=C1NC(=O)C(C(C)O)NC(=O)c2csc(n2)-c2cc(O)c(-c3nc(C(=O)NC(CNC(CO)Cc4c[nH]cn4)C(N)=O)cs3)nc2-c2csc(n2)C2COC(=O)c3c4c5c(cccc5n3O)COC(=O)C(OC3CC(C)(O)C(N(C)C)C(C)O3)C(OC4)C(NC(=O)c3csc1n3)c1nc(cs1)C(=O)N2 (stereo not drawn) [Example 67]	2.0 µg/mL (≈ 1.27 µM)	1.0 µg/mL (≈ 0.633 µM)	8.0 µg/mL (≈ 5.07 µM)			
CO/C(C)=C1/NC(=O)C(C(C)O)NC(=O)c2csc(n2)-c2cc(O)c(-c3nc(C(=O)NC(CNCCn4cc([N+](=O)[O-])nc4C)C(N)=O)cs3)nc2-c2csc(n2)C2COC(=O)c3c4c5c(cccc5n3O)COC(=O)C(O[C@H]3C[C@](C)(O)[C@H](N(C)C)[C@H](C)O3)C(OC4)C(NC(=O)c3csc1n3)c1nc(cs1)C(=O)N2 (stereo partly drawn) [Example 68]	2.0 µg/mL (≈ 1.24 µM)	0.5 µg/mL (≈ 0.311 µM)	8.0 µg/mL (≈ 4.98 µM)			
